Laboratory results reported in US8609713B2, “Pyrrole derivatives and their methods of use” (AbbVie Inc., priority 2006, dated 2013).

Biological target: α7 nAChRs (Homo sapiens, UniProt P36544)
Assay: High-throughput calcium flux (FLIPR) assay using IMR-32 cells expressing endogenous α7 nAChRs
Method: (i) High-Throughput Calcium Flux Assays Using Cells Expressing Endogenous α7 nAChRs
Any suitable selective α7 agonist can be used.
IMR-32 neuroblastoma cells (ATCC) were grown to confluency in 162 cm^2 tissue culture flasks in minimum essential media supplemented with 10% FBS and 1 mM sodium puruvate, 0.1 mM non-essential amino acids and 1% antibiotic-antimycotic. The cells were then dissociated using cell dissociation buffer and 40 μl of 3.5×10^5 cells/ml cell suspension was plated (˜15,000 cells/well) into black plates with clear bottom and maintained for 48 hours in a tissue culture incubator at 37° C. under an atmosphere of 5% CO2: 95% air. […] Calcium flux was measured using calcium-3 assay kit (Molecular Devices, Sunnyvale, Calif.) or fluo-4. […] Fluorescence measurements were read simultaneously from all the wells by a Fluorometic Imaging Plate Reader (FLIPR) at an excitation wavelength of 480 nm and an emission wavelength of 520 nm. Baseline fluorescence was measured for the first 10 seconds, at which point 5× concentrations of modulator/test compounds were added to the cell plate and incubated for three minutes. The fluorescence intensity was captured every second for the first 1 minute followed by every 5 seconds for an additional 2 minutes. […]

Chain of α7 nAChRs (P36544 23-502): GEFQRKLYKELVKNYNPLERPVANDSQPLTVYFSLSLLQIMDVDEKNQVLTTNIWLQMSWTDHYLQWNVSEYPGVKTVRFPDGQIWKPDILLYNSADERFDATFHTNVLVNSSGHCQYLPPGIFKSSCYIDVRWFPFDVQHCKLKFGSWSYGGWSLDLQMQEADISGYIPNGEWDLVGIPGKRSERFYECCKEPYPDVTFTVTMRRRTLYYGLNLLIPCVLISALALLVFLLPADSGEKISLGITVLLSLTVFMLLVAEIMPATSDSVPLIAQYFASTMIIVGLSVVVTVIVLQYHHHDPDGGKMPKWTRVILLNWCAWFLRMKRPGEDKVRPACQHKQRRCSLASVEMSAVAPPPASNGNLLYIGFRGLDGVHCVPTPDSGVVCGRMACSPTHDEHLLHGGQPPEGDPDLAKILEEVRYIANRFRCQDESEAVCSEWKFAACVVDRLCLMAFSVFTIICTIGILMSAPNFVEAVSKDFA

Compound | calcium response, agonist alone (absence of allosteric modulator, FIG. 3) | effect of α7 selective antagonist on the agonist plus modulator calcium response
CN1CC2CN(c3ccc(-c4ccccc4)nn3)CC2C1 (centres unmarked) | did not trigger calcium responses | 
CCN1C[C@]2(COC(=O)c3ccccc3N3C(=O)C[C@H](C)C3=O)CC[C@H](OC)[C@@]34[C@@H]5C[C@H]6[C@H](OC)[C@@H]5[C@](O)(C[C@@H]6OC)[C@@](O)([C@@H](OC)[C@H]23)[C@@H]14 [methyllycaconitine] |  | abolished response
